Molecules are shown by their SMILES. Where only a bound is given, the exact number is not on record here.

The values that follow come from US4153709A, “N-Heterocyclic ureas as immune regulants” (Eli Lilly and Company, priority 1977, dated 1979).

The experiment concerns antibody response to sheep blood cells (hemaglutination titer). Nature of the experiment: Immune regulating test: suppression of hemaglutination titer by 4-fold factor in mice (i.p. drug, i.p. sheep blood cells), Tables 1-15. It counts as in vivo, Swiss mice. The settings on record: Mus musculus, ip, 192 h, × 3, intraperitoneal, minimum dose to suppress the hemaglutination titer by a 4-fold factor, 8 days after antigen, read-out: Immuno-Suppressant ED4-Fold. As for the experimental part: The ability of compounds according to the above formulas to alter immune mechanisms in a host animal was measured by their activity according to the following test. Groups of five 20-gram Swiss mice were injected intraperitoneally with standardized suspensions of an antigen--in this instance sheep blook cells. […] Eight days after injection of the antigen, the mice were bled and the sera from each group pooled. Antibody determinations were made on the serum pools by a hemaglutination pattern procedure and comparisons made between treated and control animals. In Tables 1-18 which follow, the activity of the compounds listed therein is given in terms of the minimum dose of drug necessary to suppress the hemaglutination titer by a 4-fold factor in the treated mice as compared with control titers.
For the molecule `Cc1cc2nc(NC(=O)Nc3cc(Cl)ccc3Cl)sc2cc1C`, the minimal effective dose was less than 12.5 mg/kg.

`Cc1cc2nc(NC(=O)Nc3ccc(Cl)c(Cl)c3)sc2cc1C`: the minimal effective dose was 50 mg/kg.

With `Cc1cc2nc(NC(=O)Nc3cccc(Cl)c3)sc2cc1C`, the minimal effective dose was 100 mg/kg.

Consider `Cc1cc2nc(NC(=O)Nc3cccc(C(F)(F)F)c3)sc2cc1C`, for which the minimal effective dose came to 25 mg/kg.

For the molecule `Cc1cc2nc(NC(=O)Nc3ccccc3Cl)sc2cc1C`, the minimal effective dose is less than 100 mg/kg.

Take `Cc1cc2nc(NC(=O)Nc3ccccc3F)sc2cc1C`: the minimal effective dose is less than 1.6 mg/kg.

Take `Cc1cc2nc(NC(=O)Nc3ccc(Cl)cc3)sc2cc1C`: the minimal effective dose came to 25 mg/kg.

On to `Cc1cc2nc(NC(=O)Nc3ccc(F)cc3)sc2cc1C`, for which the minimal effective dose is 12.5 mg/kg.

Regarding `O=C(Nc1ccc(Cl)c(Cl)c1)Nc1nc2ccccc2[nH]1` [Table 1: 3,4-dichlorophenyl, H], the minimal effective dose is 0.8 mg/kg.

With `O=C(Nc1cccc(Cl)c1)Nc1nc2ccccc2[nH]1` [Table 1: m-chlorophenyl, H], the minimal effective dose amounted to 3.1 mg/kg.

As to `O=C(Nc1cccc(C(F)(F)F)c1)Nc1nc2ccccc2[nH]1` [Table 1: m-trifluoromethylphenyl, H], the minimal effective dose stood at 100 mg/kg.

As to `O=C(Nc1nc2ccccc2[nH]1)Nc1ccccc1Cl` [Table 1: o-chlorophenyl, H], the minimal effective dose is 12.5 mg/kg.

Regarding `O=C(Nc1nc2ccccc2[nH]1)Nc1ccccc1F` [Table 1: o-fluorophenyl, H], the minimal effective dose came out at 1.6 mg/kg.

Take `Cc1ccccc1NC(=O)Nc1nc2ccccc2[nH]1` [Table 1: o-tolyl, H]: the minimal effective dose worked out at 25 mg/kg.

For the molecule `O=C(Nc1ccc(Br)cc1)Nc1nc2ccccc2[nH]1` [Table 1: p-bromophenyl, H], the minimal effective dose worked out at 100 mg/kg.

As for `O=C(Nc1ccc(Cl)cc1)Nc1nc2ccccc2[nH]1` [Table 1: p-chlorophenyl, H], the minimal effective dose amounted to 12.5 mg/kg.

Consider `O=C(Nc1ccc(F)cc1)Nc1nc2ccccc2[nH]1` [Table 1: p-fluorophenyl, H], for which the minimal effective dose amounted to 6.2 mg/kg.

As for `Cc1ccc(NC(=O)Nc2nc3ccccc3[nH]2)cc1` [Table 1: p-tolyl, H], the minimal effective dose stood at 6.2 mg/kg.

As to `O=C(Nc1nc2ccccc2[nH]1)Nc1cccc2ccccc12` [Table 1: α-naphthyl, H, N-(2-Benzimidazolyl)-N'-naphthylurea], the minimal effective dose came out at 3.1 mg/kg.

Regarding `Cc1cccc(NC(=O)Nc2nc3cc(Cl)ccc3[nH]2)c1` [Table 2: m-tolyl], the minimal effective dose is 25 mg/kg.

On to `COc1ccccc1NC(=O)Nc1nc2cc(Cl)ccc2[nH]1` [Table 2: o-anisyl], for which the minimal effective dose is less than 6.2 mg/kg.

On to `O=C(Nc1nc2cc(Cl)ccc2[nH]1)Nc1ccccc1Cl` [Table 2: o-chlorophenyl], for which the minimal effective dose came out at 100 mg/kg.

Regarding `O=C(Nc1nc2cc(Cl)ccc2[nH]1)Nc1ccccc1F` [Table 2: o-fluorophenyl], the minimal effective dose is less than 100 mg/kg.

For `Cc1ccccc1NC(=O)Nc1nc2cc(Cl)ccc2[nH]1` [Table 2: o-tolyl], the minimal effective dose was determined as 100 mg/kg.

As to `O=C(Nc1ccc(Cl)cc1)Nc1nc2cc(Cl)ccc2[nH]1` [Table 2: p-chlorophenyl], the minimal effective dose was 6.2 mg/kg.

Turning to `O=C(Nc1ccc(F)cc1)Nc1nc2cc(Cl)ccc2[nH]1` [Table 2: p-fluorophenyl], the minimal effective dose was less than 12.5 mg/kg.

As to `Cc1ccc(NC(=O)Nc2nc3cc(Cl)ccc3[nH]2)cc1` [Table 2: p-tolyl], the minimal effective dose was 50 mg/kg.

In the case of `O=C(Nc1ccccc1)Nc1nc2cc(Cl)ccc2[nH]1` [Table 2: phenyl], the minimal effective dose turned out to be 25 mg/kg.

As for `O=C(Nc1nc2cc(Cl)ccc2[nH]1)Nc1cccc2ccccc12` [Table 2: α-naphthyl], the minimal effective dose came out at 6.2 mg/kg.

Turning to `CCOC(=O)c1ccc2[nH]c(NC(=O)Nc3cccc(Cl)c3)nc2c1` [Table 3: m-chlorophenyl], the minimal effective dose was 50 mg/kg.

Turning to `CCOC(=O)c1ccc2[nH]c(NC(=O)Nc3cccc(C)c3)nc2c1` [Table 3: m-tolyl], the minimal effective dose was less than 12.5 mg/kg.

As to `CCOC(=O)c1ccc2[nH]c(NC(=O)Nc3cccc(C(F)(F)F)c3)nc2c1` [Table 3: m-trifluoromethylphenyl], the minimal effective dose was found to be 100 mg/kg.

Regarding `CCOC(=O)c1ccc2[nH]c(NC(=O)Nc3ccccc3Cl)nc2c1` [Table 3: o-chlorophenyl], the minimal effective dose came to 0.4 mg/kg.

As to `CCOC(=O)c1ccc2[nH]c(NC(=O)Nc3ccccc3F)nc2c1` [Table 3: o-fluorophenyl], the minimal effective dose was less than 6.2 mg/kg.

Turning to `CCOC(=O)c1ccc2[nH]c(NC(=O)Nc3ccccc3C)nc2c1` [Table 3: o-tolyl], the minimal effective dose stood at 25 mg/kg.

On to `CCOC(=O)c1ccc2[nH]c(NC(=O)Nc3ccc(Cl)cc3)nc2c1` [Table 3: p-chlorophenyl], for which the minimal effective dose was 50 mg/kg.

On to `CCOC(=O)c1ccc2[nH]c(NC(=O)Nc3ccc(F)cc3)nc2c1` [Table 3: p-fluorophenyl], for which the minimal effective dose came to 25 mg/kg.

On to `CCOC(=O)c1ccc2[nH]c(NC(=O)Nc3ccc(C)cc3)nc2c1` [Table 3: p-tolyl], for which the minimal effective dose turned out to be 100 mg/kg.

For `CCOC(=O)c1ccc2[nH]c(NC(=O)Nc3ccccc3)nc2c1` [Table 3: phenyl], the minimal effective dose is less than 25 mg/kg.

Consider `CCOC(=O)c1ccc2[nH]c(NC(=O)Nc3cccc4ccccc34)nc2c1` [Table 3: α-naphthyl], for which the minimal effective dose amounted to 6.2 mg/kg.

For the molecule `O=C(Nc1cccc(Cl)c1)Nc1nc2cc(C(F)(F)F)ccc2[nH]1` [Table 4: am-chlorophenyl, CF3], the minimal effective dose was 50 to 200 mg/kg.

Take `O=C(Nc1ccccc1)Nc1nc2cc(C(F)(F)F)ccc2[nH]1` [Table 4: phenyl, CF3]: the minimal effective dose was determined as 12.5 mg/kg.

With `Cc1ccc2[nH]c(NC(=O)Nc3ccccc3)nc2c1` [Table 4: phenyl, CH3], the minimal effective dose turned out to be 100 mg/kg.

As for `O=C(Nc1nc2cc(C(F)(F)F)ccc2[nH]1)Nc1cccc2ccccc12` [Table 4: α-naphthyl, CF3], the minimal effective dose was less than 50 mg/kg.

For the molecule `Cc1ccc2[nH]c(NC(=O)Nc3cccc4ccccc34)nc2c1` [Table 4: α-naphthyl, CH3], the minimal effective dose was less than 0.4 mg/kg.

In the case of `Cc1cc2nc(NC(=O)Nc3ccc(F)cc3F)[nH]c2cc1C` [Table 5: 2,4-difluorophenyl, CH3, CH3], the minimal effective dose was found to be 0.4 mg/kg.

As for `Cc1cc2nc(NC(=O)Nc3cc(Cl)ccc3Cl)[nH]c2cc1C` [Table 5: 2,5-dichlorophenyl, CH3, CH3], the minimal effective dose is less than 25 mg/kg.

Consider `Cc1cc2nc(NC(=O)Nc3ccc(Cl)c(Cl)c3)[nH]c2cc1C` [Table 5: 3,4-dichlorophenyl, CH3, CH3], for which the minimal effective dose stood at 100 mg/kg.

For `Cc1cc2nc(NC(=O)Nc3cccc(Cl)c3)[nH]c2cc1C` [Table 5: m-chlorophenyl, CH3, CH3], the minimal effective dose was found to be 800 mg/kg.

Regarding `Cc1cccc(NC(=O)Nc2nc3cc(C)c(C)cc3[nH]2)c1` [Table 5: m-tolyl, CH3, CH3], the minimal effective dose turned out to be 12.5 mg/kg.

In the case of `Cc1cc2nc(NC(=O)Nc3ccccc3F)[nH]c2cc1C` [Table 5: o-fluorophenyl, CH3, CH3], the minimal effective dose amounted to 100 mg/kg.

Consider `Cc1cc2nc(NC(=O)Nc3ccccc3C)[nH]c2cc1C` [Table 5: o-tolyl, CH3, CH3], for which the minimal effective dose turned out to be 12.5 mg/kg.

For `COc1ccc(NC(=O)Nc2nc3cc(C)c(C)cc3[nH]2)cc1` [Table 5: p-anisyl, CH3, CH3], the minimal effective dose worked out at 12.5 mg/kg.

Take `Cc1cc2nc(NC(=O)Nc3ccc(Br)cc3)[nH]c2cc1C` [Table 5: p-bromophenyl, CH3, CH3]: the minimal effective dose is 12.5 mg/kg.

`Cc1cc2nc(NC(=O)Nc3ccc(Cl)cc3)[nH]c2cc1C` [Table 5: p-chlorophenyl, CH3, CH3]: the minimal effective dose came out at 12.5 mg/kg.

Regarding `Cc1ccc(NC(=O)Nc2nc3cc(C)c(C)cc3[nH]2)cc1` [Table 5: p-tolyl, CH3, CH3], the minimal effective dose was found to be 3 mg/kg.

In the case of `Cc1cc2nc(NC(=O)Nc3ccccc3)[nH]c2cc1C` [Table 5: phenyl, CH3, CH3], the minimal effective dose was found to be 12.5 mg/kg.

Take `O=C(Nc1ccccc1)Nc1nc2cc(Cl)c(Cl)cc2[nH]1` [Table 5: phenyl, Cl, Cl]: the minimal effective dose stood at 12.5 mg/kg.

Consider `Cc1cc2nc(NC(=O)Nc3cccc4ccccc34)[nH]c2cc1C` [Table 5: α-naphthyl, CH3, CH3], for which the minimal effective dose stood at 50 mg/kg.

For the molecule `O=C(Nc1nc2cc(Cl)c(Cl)cc2[nH]1)Nc1cccc2ccccc12` [Table 5: α-naphthyl, Cl, Cl], the minimal effective dose was more than 12.5 mg/kg.

On to `O=C(Nc1nc2c([N+](=O)[O-])cccc2[nH]1)Nc1ccccc1F` [Table 6: 4(7), o-fluorophenyl], for which the minimal effective dose was determined as 3.1 mg/kg.

For `O=C(Nc1ccccc1)Nc1nc2c([N+](=O)[O-])cccc2[nH]1` [Table 6: 4(7), phenyl], the minimal effective dose turned out to be 25 mg/kg.

For `CN(C(=O)Nc1cccc(Cl)c1)c1nc2ccccc2[nH]1` [Table 7: m-chlorophenyl, H], the minimal effective dose was found to be 25 mg/kg.

With `CN(C(=O)Nc1ccc(Cl)cc1)c1nc2ccccc2[nH]1` [Table 7: p-chlorophenyl, H], the minimal effective dose came out at 50 mg/kg.

Take `CN(C(=O)Nc1ccccc1)c1nc2ccccc2[nH]1` [Table 7: phenyl, H]: the minimal effective dose amounted to 50 mg/kg.

For `CN(C(=O)Nc1cccc2ccccc12)c1nc2ccccc2[nH]1` [Table 7: α-naphthyl, H], the minimal effective dose worked out at 25 mg/kg.

For the molecule `Cn1c(NC(=O)Nc2cccc(Cl)c2)nc2ccccc21` [Table 8: m-chlorophenyl, methyl], the minimal effective dose was 6.2 mg/kg.

For the molecule `Cn1c(NC(=O)Nc2ccc(Cl)cc2)nc2ccccc21` [Table 8: p-chlorophenyl, methyl], the minimal effective dose is more than 50 mg/kg.

For `Cn1c(NC(=O)Nc2ccccc2)nc2ccccc21` [Table 8: phenyl, methyl], the minimal effective dose was 3.1 mg/kg.
